{"source": "patent US8809586B2", "about": "“Modafinil compositions” (priority 2004, dated 2014)", "data": [{"experiment": "Solubility measured from an isopropyl acetate slurry, by HPLC", "details": "solid from solubility samples dried under nitrogen, characterized by PXRD and thermal microscopy", "values": [{"smiles": "NC(=O)C[S@@+]([O-])C(c1ccccc1)c1ccccc1", "note": "[R-(−)-modafinil Form III, R-(−)-2-[(Diphenylmethyl)sulfinyl]acetamide]", "Form conversion during solubility procedure": "Form conversion was not observed"}, {"smiles": "NC(=O)C[S@@+]([O-])C(c1ccccc1)c1ccccc1", "note": "[R-(−)-modafinil Form IV, R-(−)-2-[(Diphenylmethyl)sulfinyl]acetamide]", "Form conversion during solubility procedure": "Form conversion was not observed"}, {"smiles": "NC(=O)C[S@@+]([O-])C(c1ccccc1)c1ccccc1", "note": "[R-(−)-modafinil Form V, R-(−)-2-[(Diphenylmethyl)sulfinyl]acetamide]", "Form conversion during solubility procedure": "Form conversion was not observed"}]}]}
